Test results published in ChEMBL document CHEMBL1201862, “PubChem BioAssay data set” (2004).
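Results reflect a 48-hour exposure of cells in 96-well plates to compound at five concentrations. GI50 is the concentration that inhibits growth by half.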 The source made the active and inactive calls. Rule as the data show it: active = GI50 up to about 1.1 µM and inactive = higher.

Legend:
Assay in all cases: growth of human tumour cells (NCI), 48 h
SF-539 = test system: SF-539
K562 = test system: K562
LOX IMVI = test system: LOX IMVI
SNB-19 = test system: SNB-19
HOP-62 = test system: HOP-62
MDA-N = test system: MDA-N
NCI-H460 = test system: NCI-H460
UO-31 = test system: UO-31
MOLT-4 = test system: MOLT-4
SK-OV-3 = test system: SK-OV-3
OVCAR-5 = test system: OVCAR-5
U-251 = test system: U-251
UACC-257 = test system: UACC-257
ACHN = test system: ACHN
Hs-578T = test system: Hs-578T
SK-MEL-5 = test system: SK-MEL-5
HOP-92 = test system: HOP-92
COLO 205 = test system: COLO 205
CCRF-CEM = test system: CCRF-CEM
NCI/ADR-RES = test system: NCI/ADR-RES

Measured: GI50

C1CSCCCSCCSCCCSC1
inactive: SF-539 > 100 µM | K562 > 100 µM | LOX IMVI > 100 µM | SNB-19 > 100 µM | HOP-62 > 100 µM | MDA-N > 100 µM | NCI-H460 > 100 µM | UO-31 > 100 µM | MOLT-4 > 100 µM | SK-OV-3 > 100 µM | OVCAR-5 > 100 µM | U-251 > 100 µM | UACC-257 > 100 µM | ACHN > 100 µM | Hs-578T > 100 µM | SK-MEL-5 > 100 µM | HOP-92 > 100 µM | COLO 205 > 100 µM

CC(=O)OCC(OC(C)=O)C(OC(C)=O)C(OC(C)=O)C(C=NN(C(C)=O)S(=O)(=O)c1ccc(/C=C2\NC(=O)N(C)C2=O)cc1)OC(C)=O (stereo not given)
inactive: CCRF-CEM 13 µM | K562 21.4 µM | LOX IMVI 21.8 µM | SNB-19 45 µM | HOP-62 85.1 µM | MDA-N 35.7 µM | NCI-H460 22.1 µM | UO-31 57.5 µM | SK-OV-3 48.5 µM | OVCAR-5 83.2 µM | U-251 32.1 µM | UACC-257 43.9 µM | ACHN 34.5 µM | Hs-578T 32.9 µM | SK-MEL-5 30.1 µM | COLO 205 26.2 µM | NCI/ADR-RES > 100 µM

Cc1ccc(/N=N/N(C)C(C)C(O)Cc2ccccc2)cc1 (stereo not given)
inactive: CCRF-CEM 32.7 µM | K562 39.3 µM | SNB-19 82.2 µM | HOP-62 > 100 µM | MDA-N 23.7 µM | NCI-H460 36.5 µM | UO-31 18 µM | MOLT-4 33.7 µM | SK-OV-3 > 100 µM | OVCAR-5 > 100 µM | U-251 88.5 µM | UACC-257 84.9 µM | ACHN 78.5 µM | Hs-578T 41.9 µM | SK-MEL-5 39.6 µM | COLO 205 40.9 µM | NCI/ADR-RES 40.4 µM

COC(=O)C1CCC(=S)N1C(C)=O (stereo not given)
inactive: K562 > 100 µM | SNB-19 > 100 µM | HOP-62 > 100 µM | MDA-N > 100 µM | NCI-H460 > 100 µM | UO-31 > 100 µM | MOLT-4 > 100 µM | SK-OV-3 > 100 µM | OVCAR-5 > 100 µM | U-251 > 100 µM | UACC-257 > 100 µM | ACHN > 100 µM | Hs-578T > 100 µM | SK-MEL-5 > 100 µM | HOP-92 > 100 µM | COLO 205 > 100 µM | NCI/ADR-RES > 100 µM

CS/C(Nc1ccccc1)=C1\C(=O)N(c2ccccc2)N=C1C
inactive: SF-539 > 100 µM | CCRF-CEM > 100 µM | K562 > 100 µM | LOX IMVI > 100 µM | SNB-19 > 100 µM | MDA-N > 100 µM | NCI-H460 > 100 µM | UO-31 > 100 µM | MOLT-4 > 100 µM | SK-OV-3 > 100 µM | OVCAR-5 > 100 µM | U-251 > 100 µM | UACC-257 > 100 µM | Hs-578T > 100 µM | SK-MEL-5 > 100 µM | COLO 205 > 100 µM | NCI/ADR-RES > 100 µM

O=c1[nH]c(=O)n(C2CC(O)C(CO)O2)cc1/N=N/NCCc1ccccc1 (stereo not given)
inactive: CCRF-CEM > 100 µM | K562 > 100 µM | LOX IMVI > 100 µM | SNB-19 > 100 µM | HOP-62 > 100 µM | MDA-N > 100 µM | NCI-H460 > 100 µM | UO-31 > 100 µM | MOLT-4 > 100 µM | SK-OV-3 > 100 µM | OVCAR-5 > 100 µM | U-251 > 100 µM | UACC-257 > 100 µM | ACHN > 100 µM | Hs-578T > 100 µM | SK-MEL-5 > 100 µM | COLO 205 > 100 µM | NCI/ADR-RES > 100 µM

CC(=O)OC1CC2CCC1(C)C2(C)C (stereo not given)
inactive: SF-539 > 100 µM | CCRF-CEM > 100 µM | K562 > 100 µM | LOX IMVI > 100 µM | SNB-19 > 100 µM | HOP-62 > 100 µM | MDA-N > 100 µM | NCI-H460 > 100 µM | UO-31 > 100 µM | MOLT-4 > 100 µM | SK-OV-3 > 100 µM | OVCAR-5 > 100 µM | U-251 > 100 µM | UACC-257 > 100 µM | ACHN > 100 µM | Hs-578T > 100 µM | COLO 205 > 100 µM | NCI/ADR-RES > 100 µM

CN(C)c1ccc(C2C(Cl)C(=O)N2NC(=O)c2c(Cl)c(Cl)c(Cl)c(Cl)c2-c2nc3ccccc3[nH]2)cc1 (stereo not given)
inactive: SF-539 7.89 µM | CCRF-CEM 3.36 µM | K562 4.44 µM | LOX IMVI 7.4 µM | SNB-19 30.3 µM | MDA-N 5.77 µM | UO-31 19.4 µM | MOLT-4 2.68 µM | SK-OV-3 33.7 µM | OVCAR-5 31.3 µM | UACC-257 20.5 µM | ACHN 15.8 µM | Hs-578T 33.3 µM | SK-MEL-5 16.1 µM | HOP-92 5.4 µM | COLO 205 7.67 µM | NCI/ADR-RES 21.6 µM

CCOC(=O)/C(C#N)=C/c1ccc(CO)o1
inactive: SF-539 > 100 µM | K562 > 100 µM | LOX IMVI > 100 µM | SNB-19 > 100 µM | HOP-62 > 100 µM | MDA-N > 100 µM | NCI-H460 > 100 µM | MOLT-4 > 100 µM | SK-OV-3 > 100 µM | OVCAR-5 > 100 µM | U-251 > 100 µM | UACC-257 > 100 µM | ACHN > 100 µM | Hs-578T > 100 µM | SK-MEL-5 > 100 µM | COLO 205 > 100 µM | NCI/ADR-RES > 100 µM

O=c1c2cc([N+](=O)[O-])cnc2sn1-c1ccc([N+](=O)[O-])cc1
inactive: SF-539 29.2 µM | CCRF-CEM 34.8 µM | LOX IMVI 18.5 µM | SNB-19 30.1 µM | HOP-62 52 µM | MDA-N 87.7 µM | NCI-H460 45.1 µM | UO-31 52 µM | MOLT-4 32.1 µM | SK-OV-3 35.5 µM | OVCAR-5 59.2 µM | U-251 49.5 µM | UACC-257 > 100 µM | ACHN 71.3 µM | Hs-578T 29.2 µM | SK-MEL-5 99.5 µM | COLO 205 16.9 µM | NCI/ADR-RES 28.9 µM

NCCSc1nc(-c2ccccc2)c(-c2ccccc2)o1
inactive: SF-539 > 100 µM | K562 > 100 µM | LOX IMVI > 100 µM | SNB-19 > 100 µM | HOP-62 > 100 µM | NCI-H460 65.9 µM | UO-31 > 100 µM | SK-OV-3 73.3 µM | OVCAR-5 > 100 µM | U-251 > 100 µM | UACC-257 41.2 µM | ACHN > 100 µM | Hs-578T > 100 µM | SK-MEL-5 > 100 µM | HOP-92 > 100 µM | COLO 205 > 100 µM | NCI/ADR-RES > 100 µM

O=C(Nc1ccccc1F)c1cc2ccc(O)cc2o/c1=N\c1cccc(F)c1
inactive: SF-539 17.5 µM | CCRF-CEM 3.31 µM | K562 4.42 µM | LOX IMVI 9.89 µM | SNB-19 15.9 µM | HOP-62 19 µM | MDA-N 14.6 µM | NCI-H460 6.35 µM | UO-31 13 µM | MOLT-4 4.41 µM | SK-OV-3 28.1 µM | OVCAR-5 23.7 µM | U-251 12.4 µM | UACC-257 19.5 µM | ACHN 9.89 µM | Hs-578T 25.6 µM | SK-MEL-5 5.22 µM | COLO 205 29.7 µM | NCI/ADR-RES 12.8 µM

C=CCOC(=O)Cn1cnc2c(N)ncnc21
inactive: SF-539 > 100 µM | CCRF-CEM > 100 µM | K562 > 100 µM | LOX IMVI > 100 µM | SNB-19 > 100 µM | HOP-62 > 100 µM | MDA-N > 100 µM | NCI-H460 > 100 µM | UO-31 > 100 µM | MOLT-4 > 100 µM | SK-OV-3 > 100 µM | U-251 > 100 µM | UACC-257 > 100 µM | ACHN > 100 µM | Hs-578T > 100 µM | SK-MEL-5 > 100 µM | COLO 205 > 100 µM | NCI/ADR-RES > 100 µM

COC(C)(C)[C@@H]1CCCN1C1=C(C)C(=O)OC1
inactive: SF-539 > 100 µM | CCRF-CEM > 100 µM | K562 > 100 µM | LOX IMVI > 100 µM | SNB-19 > 100 µM | HOP-62 > 100 µM | MDA-N > 100 µM | NCI-H460 > 100 µM | UO-31 > 100 µM | MOLT-4 > 100 µM | SK-OV-3 > 100 µM | OVCAR-5 > 100 µM | U-251 > 100 µM | ACHN > 100 µM | Hs-578T > 100 µM | SK-MEL-5 > 100 µM | COLO 205 > 100 µM | NCI/ADR-RES > 100 µM

C=C=C(C)[Si](C)(C)C
inactive: SF-539 > 100 µM | CCRF-CEM > 100 µM | K562 > 100 µM | LOX IMVI > 100 µM | SNB-19 > 100 µM | HOP-62 > 100 µM | MDA-N > 100 µM | NCI-H460 > 100 µM | UO-31 > 100 µM | MOLT-4 > 100 µM | SK-OV-3 > 100 µM | OVCAR-5 > 100 µM | U-251 > 100 µM | UACC-257 > 100 µM | ACHN > 100 µM | Hs-578T > 100 µM | SK-MEL-5 > 100 µM | COLO 205 > 100 µM | NCI/ADR-RES > 100 µM
